The target in one assay is T1, VIM-2 (Escherichia coli, UniProt Q5U7L7).
T1 construct: made in house; host or cells: E. coli BL21(DE3)
Nature of the assay: β-Lactamase enzyme inhibition assay, VIM-2 (nitrocefin substrate). The format is biochemical. As to conditions: nitrocefin substrate 100 μM, 15 min preincubation at 37° C.; read-out: IC50, Class B VIM-2. In a few lines:
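Purified VIM-2 (Q sepharose anion exchange, HEPES pH 7.5) preincubated with inhibitor 15 min at 37° C. Nitrocefin added at 100 μM final; absorbance at 486 nm monitored 10 min. IC50 from inhibition of initial hydrolysis rate versus inhibitor-free controls.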

Assay [1] relates to P. aeruginosa Ps296 expressing VIM-2. Briefly: Broth microdilution MIC assay, partner meropenem. The format is cell-based. As to conditions: Pseudomonas aeruginosa, read-out: MIC of Exemplary Compounds in presence of fixed β-lactams, Fixed Mero, P. aerug. Ps296 VIM-2.
Another assay addresses T2, KPC-2 (Klebsiella pneumoniae, UniProt Q9F663).
T2 construct: expressed as native untagged proteins; made in house; host or cells: E. coli BL21(DE3)
Nature of the assay: β-Lactamase enzyme inhibition assay, KPC-2 (imipenem substrate). As to conditions: 15 min preincubation at 37° C., read-out: IC50, Class A KPC-2. The assay is classed as biochemical. As to the method:
(§1) For SHV-5, Kpc-2, p99AmpC and OXA-1 β-lactamases, E. coli BL21(DE3) bacterial cells carrying expression plasmids (expressed as native untagged proteins) for the individual β-lactamases were grown in 1 L of Superbroth (Teknova Inc. Hollister, CA) supplemented with 100 μg/ml kanamycin selection and 1×5052 (0.5% glycerol, 0.05% glucose and 0.2% α-lactose) at 35° C. for 18-20 hours. Cells were harvested by centrifugation (4,000×g, 4° C., 20 min), resuspended in 50 ml of 10 mM HEPES pH 7.5 (1/20 of the initial volume). The cells were lysed by sonication (5 pulses of 45 seconds) at 45 W on ice. The lysates were clarified by centrifugation at 10,000×g for 40 minutes at 4° C. […] Active fractions were pooled concentrated, quantitated by BCA protein determination (Thermo Scientific, Rockford, Ill.), dialyzed into PBS and frozen at −80° C. in 20% glycerol until use.
(§2) An equal volume of diluted enzyme stock was added, and the plates were incubated at 37° C. for 15 min. […] Absorbance at 486 nm was immediately monitored for 10 min using a Biotek Powerwave XS2 microplate spectrophotometer using the GEN5 softweare package (Biotek Instruments, Winooski Vt.). […] Maximum rates of hydrolysis were compared to those in control wells (without inhibitors), and percentages of enzyme inhibition were calculated for each concentration of inhibitor. […]

The test system of assay [2] is K. pneumoniae 156319 expressing KPC-3. Briefly: Broth microdilution MIC assay, partner meropenem. The assay is classed as cell-based. As to conditions: Klebsiella pneumoniae, read-out: MIC of Exemplary Compounds in presence of fixed β-lactams, Fixed Mero, K.P. 156319 KPC-3.
Another assay concerns the target T3, p99 AmpC (Enterobacter cloacae, UniProt P05364).
T3 construct: expressed as native untagged proteins; made in house; host or cells: E. coli BL21(DE3)
Briefly: β-Lactamase enzyme inhibition assay, p99 AmpC (nitrocefin substrate). The assay is classed as biochemical. As to conditions: nitrocefin substrate 100 μM, 15 min preincubation at 37° C.; read-out: IC50, Class C AmpC. As to the method: as §1, §2

Assay [3] relates to S. aureus MSSA-7 producing penicillinase PC-1. Nature of the assay: Broth microdilution MIC assay, partner piperacillin. The assay is classed as cell-based. As to conditions: Staphylococcus aureus, fixed piperacillin 4 μg/mL, read-out: MIC of Exemplary Compounds in presence of fixed β-lactams, Fixed Pip, S. aureus MSSA-7 PC-1. For orientation: In broth dilution the organism is exposed to a series of concentrations in liquid medium.

Assay [4] relates to K. pneumoniae A-1797 expressing KPC-2 and VIM-4. Nature of the assay: Broth microdilution MIC assay, partner meropenem. The assay is classed as cell-based. As to conditions: Klebsiella pneumoniae, read-out: MIC of Exemplary Compounds in presence of fixed β-lactams, Fixed Mero, K.P. A-1797 KPC-2 VIM-4.
Assay [5] has as its system E. coli ESBL4 expressing CTX-M-15. Nature of the assay: Broth microdilution MIC assay, partner ceftazidime. The format is cell-based. As to conditions: Escherichia coli, read-out: MIC of Exemplary Compounds in presence of fixed β-lactams, Fixed CAZ, E. coli ESBL4 CTX-M-15.
Another assay deals with T4, SHV-5 (Klebsiella pneumoniae, UniProt P0A3M1).
T4 construct: expressed as native untagged proteins; made in house; host or cells: E. coli BL21(DE3)
Nature of the assay: β-Lactamase enzyme inhibition assay, SHV-5 (cefotaxime substrate). The format is biochemical. As to conditions: 15 min preincubation at 37° C., read-out: IC50, Class A SHV-5. As to the method: as §1, §2

A further assay has as its target T5, OXA-1 (Escherichia coli, UniProt P13661).
T5 construct: expressed as native untagged proteins; made in house; host or cells: E. coli BL21(DE3)
Nature of the assay: β-Lactamase enzyme inhibition assay, OXA-1 (nitrocefin substrate). The assay is classed as biochemical. As to conditions: nitrocefin substrate 100 μM, 15 min preincubation at 37° C.; read-out: IC50, Class D OXA-1. As to the method:
as §1, §2

The subject of assay [6] is E. cloacae 144200 expressing Class C P99 AmpC. Nature of the assay: Broth microdilution MIC assay, partner ceftazidime. As to conditions: for MIC: Enterobacter cloacae, read-out: MIC of Exemplary Compounds in presence of fixed β-lactams, Fixed CAZ, E. cl. 144200 p99 AmpC. The format is cell-based.

T2 sequence (Q9F663 25-293 limits assumed): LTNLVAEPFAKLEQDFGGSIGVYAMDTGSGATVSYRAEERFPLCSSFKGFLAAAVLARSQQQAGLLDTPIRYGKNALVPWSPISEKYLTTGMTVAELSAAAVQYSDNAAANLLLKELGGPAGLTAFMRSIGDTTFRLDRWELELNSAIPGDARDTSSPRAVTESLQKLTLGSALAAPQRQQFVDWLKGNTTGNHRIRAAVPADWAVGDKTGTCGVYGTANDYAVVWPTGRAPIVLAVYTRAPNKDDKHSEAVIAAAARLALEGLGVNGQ
T3 sequence (P05364 21-381): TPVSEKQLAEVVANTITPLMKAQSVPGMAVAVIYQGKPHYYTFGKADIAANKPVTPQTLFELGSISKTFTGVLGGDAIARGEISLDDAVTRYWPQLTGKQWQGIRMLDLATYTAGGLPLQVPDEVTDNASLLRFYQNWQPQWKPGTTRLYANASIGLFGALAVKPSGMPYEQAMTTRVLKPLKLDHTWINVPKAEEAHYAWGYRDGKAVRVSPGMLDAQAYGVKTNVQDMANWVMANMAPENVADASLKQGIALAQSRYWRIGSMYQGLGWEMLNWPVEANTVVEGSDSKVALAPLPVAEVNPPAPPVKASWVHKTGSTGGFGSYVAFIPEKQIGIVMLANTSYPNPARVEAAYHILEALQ
T5 sequence (P13661 26-276): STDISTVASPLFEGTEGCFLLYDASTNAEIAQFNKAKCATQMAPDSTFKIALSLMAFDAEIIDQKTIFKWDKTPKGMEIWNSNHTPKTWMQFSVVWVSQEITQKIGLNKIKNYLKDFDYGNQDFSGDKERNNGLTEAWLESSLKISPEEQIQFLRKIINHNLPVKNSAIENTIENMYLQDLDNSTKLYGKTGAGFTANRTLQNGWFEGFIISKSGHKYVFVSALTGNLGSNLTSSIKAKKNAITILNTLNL
T4 sequence (P0A3M1 22-286): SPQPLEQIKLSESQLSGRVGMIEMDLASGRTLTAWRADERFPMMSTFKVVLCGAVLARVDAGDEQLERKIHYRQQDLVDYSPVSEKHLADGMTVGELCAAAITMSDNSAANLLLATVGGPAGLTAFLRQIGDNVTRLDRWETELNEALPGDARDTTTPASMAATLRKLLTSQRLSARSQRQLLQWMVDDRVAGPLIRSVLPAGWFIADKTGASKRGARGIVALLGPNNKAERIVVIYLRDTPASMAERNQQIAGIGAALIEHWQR

As for `O=C(Cc1ccc2c(c1)CNC2)N[C@H]1Cc2cccc(C(=O)O)c2OB1O` [Example 36, (3R)-2-hydroxy-3-[(2-isoindolin-5-ylacetyl)amino]-3,4-dihydro-1,2-benzoxaborinine-8-carboxylic acid], the concentration for half-maximal inhibition (IC50) on VIM-2 is 100 to 1000 nM; on KPC-2, below 100 nM; on p99 AmpC, below 100 nM; at SHV-5, below 100 nM; at OXA-1, below 100 nM. In addition, the MIC in assay [1] was below 4 µg/mL; in assay [2] it was below 4 µg/mL; in [3] it was below 4 µg/mL; in assay [4], above 32 µg/mL; in assay [5], below 4 µg/mL; in assay [6], below 4 µg/mL.
For the molecule `NCCNc1ccc(CC(=O)N[C@H]2Cc3cccc(C(=O)O)c3OB2O)c[n+]1[O-]` [Example 61, (R)-2-(2-aminoethylamino)-5-(2-(8-carboxy-2-hydroxy-3,4-dihydro-2H-benzo[e][1,2]oxaborinin-3-ylamino)-2-oxoethyl)pyridine 1-oxide], the IC50 at VIM-2 is 100 to 1000 nM. For the same molecule, the MIC in assay [1], in [2], in assay [3], in [4], in assay [5] and in [6] was below 4 µg/mL throughout.
With `O=C(O)c1cccc2c1OB(O)[C@@H](NC(=O)c1cccc3[nH]ccc13)C2` [Example 32, (R)-2-Hydroxy-3-[(1H-indole-4-carbonyl)-amino]-3,4-dihydro-2H-benzo[e][1,2]oxaborinine-8-carboxylic acid], the IC50 at VIM-2 is 100 to 1000 nM. The MIC is below 4 µg/mL in assay [1]; below 4 µg/mL in assay [2]; below 4 µg/mL in assay [3]; above 32 µg/mL in assay [4]; below 4 µg/mL in [5]; below 4 µg/mL in [6].
Take `O=C(N[C@H]1Cc2cccc(C(=O)O)c2OB1O)c1ccc(O)c(O)c1` [Example 39, (R)-3-(3,4-dihydroxybenzamido)-2-hydroxy-3,4-dihydro-2H-benzo[e][1,2]oxaborinine-8-carboxylic acid]: on VIM-2, the IC50 was 100 to 1000 nM. In addition, the MIC in assay [1] was 8 to 32 µg/mL; in [2] it was below 4 µg/mL; in assay [3], 8 to 32 µg/mL; in assay [4] it was 8 to 32 µg/mL; in [5] it was below 4 µg/mL; in assay [6], below 4 µg/mL.
As to `NCc1cc(CN)cc(C(=O)N[C@H]2Cc3cccc(C(=O)O)c3OB2O)c1` [Example 44, (R)-3-(3,5-bis(aminomethyl)benzamido)-2-hydroxy-3,4-dihydro-2H-benzo[e][1,2]oxaborinine-8-carboxylic acid], the IC50 at VIM-2 fell in the range of 1000 to 10000 nM. Besides, the MIC was above 32 µg/mL in [1]; above 32 µg/mL in assay [2]; above 32 µg/mL in assay [3]; above 32 µg/mL in assay [4]; 8 to 32 µg/mL in assay [5]. Moreover, in assay [6] (fixed ceftazidime 4 μg/mL), the “MIC of Exemplary Compounds in presence of fixed β-lactams, Fixed CAZ, E. cl. 144200 p99 AmpC” value was “A (A represents an MIC of the fixed β-lactam antibiotic in the presence of >32 μg/mL of a β-lactamase inhibitor of exemplary compounds)”.

As a reminder, the IC50 is the concentration needed to halve the response being measured. Usually MIC stands for the lowest concentration found to suppress growth.

The record behind these values is patent US9403850B2, “Beta-lactamase inhibitors” (priority 2013, dated 2016).
